Starred links: 1 amine or outer side, 2 acyl side, 3 side chain; linkers in the order of their positions; H or OH if unused. Non-standard residues stand in square brackets, D forms with d. Residues, ends and D or L forms follow the SMILES beside them. Phe(4-(5-CO2H-2-pyrimidyl)) = N[C@@H](Cc1ccc(-c2ncc(C(=O)O)cn2)cc1)C(=O)O; Trp(4-Cl)(βS-Me) = C[C@@H](c1c[nH]c2cccc(Cl)c12)[C@H](N)C(=O)O; dPro(4R-(4-pyridylmethyl)) = O=C(O)[C@H]1C[C@@H](Cc2ccncc2)CN1; Trp(βS-Me,4-F) = C[C@@H](c1c[nH]c2cccc(F)c12)[C@H](N)C(=O)O; Bip(4'-COOH) = N[C@@H](Cc1ccc(-c2ccc(C(=O)O)cc2)cc1)C(=O)O; Phe(2-Cl,4-COOH) = N[C@@H](Cc1ccc(C(=O)O)cc1Cl)C(=O)O; 1Nal(3S-Me) = C[C@@H](c1cccc2ccccc12)[C@H](N)C(=O)O; X13 = O=C(O)c1ccc(C[C@H](N[*:1])C(=O)[*:2])cc1Cl; Phe(4-COOH) = N[C@@H](Cc1ccc(C(=O)O)cc1)C(=O)O; Pro(cis-4-F) = O=C(O)[C@@H]1C[C@H](F)CN1; Ala(4-THP) = N[C@@H](CC1CCOCC1)C(=O)O; AEF = NCCOc1ccc(C[C@H](N)C(=O)O)cc1; d(αMeD) = C[C@@](N)(CC(=O)O)C(=O)O; 4Pal = N[C@@H](Cc1ccncc1)C(=O)O; aThr = C[C@H](O)[C@H](N)C(=O)O; d(αMeS) = C[C@@](N)(CO)C(=O)O; Dab = NCC[C@H](N)C(=O)O; Aib = CC(C)(N)C(=O)O

This note sets out measurements from patent publication US20260242419A1, “A CYCLIC PEPTIDE FOR TRAPPING INTERLEUKIN-1 BETA” (Merck Sharp & Dohme LLC, priority 2023, published 2026).

The assay addresses T1, IL-1β (Homo sapiens, UniProt P01584).
T1 construct: purchased BioLegend 579404
In words: IL-6 assay in MRC5 cells: inhibition of IL-1β induced IL-6 secretion (AlphaLISA). Format: cell-based. To be noted: inhibition of IL-1β induced IL-6 secretion in MRC5 cells; read-out: MRC5 IC50. In a few lines:
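Compound was pre-incubated 1 h at ambient temperature with recombinant human IL-1β at 2λ EC80 before adding human lung fibroblast MRC5 cells (3000/well) in EMEM with 0.025% BSA. After overnight culture at 37 °C, 5% CO2, secreted IL-6 in conditioned medium was measured by AlphaLISA; IC50 from 4-parameter logistic fits.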
For orientation: Alpha assays give light when donor and acceptor beads are brought close together.

T1 sequence (P01584 117-269): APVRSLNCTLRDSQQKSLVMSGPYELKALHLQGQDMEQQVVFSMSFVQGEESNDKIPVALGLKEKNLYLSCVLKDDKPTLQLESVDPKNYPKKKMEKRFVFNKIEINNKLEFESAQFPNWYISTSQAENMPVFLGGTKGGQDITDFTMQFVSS

In general, IC50 refers to the concentration that inhibits the measured activity by half. For the compound `C[C@H](O)[C@@H]1NC(=O)[C@@](C)(CC(=O)O)NC(=O)[C@H](Cc2c[nH]c3ccccc23)NC(=O)[C@H](CO)NC(=O)C(C)(C)NC(=O)[C@H]([C@@H](C)c2c[nH]c3cccc(F)c23)NC(=O)[C@@H]2C[C@H](F)CN2C(=O)CNC(=O)[C@H](Cc2ccc(C(=O)O)cc2Cl)NC(=O)[C@H](Cc2ccncc2)NC(=O)[C@H](Cc2ccc(-c3ccc(C(=O)O)cc3)cc2)NC(=O)[C@H]2C[C@@H](Cc3ccncc3)CN2C(=O)CNC(=O)[C@H](CCN)NC(=O)[C@H](CCC(N)=O)NC1=O` [Example 356] (cyclo([Bip(4'-COOH)][4Pal][Phe(2-Cl,4-COOH)]G[Pro(cis-4-F)][Trp(βS-Me,4-F)][Aib]SW[d(αMeD)][aThr]Q[Dab]G[dPro(4R-(4-pyridylmethyl))])), the IC50 was 11 pM. Take `C[C@H](O)[C@@H]1NC(=O)[C@@](C)(CC(=O)O)NC(=O)[C@H](Cc2c[nH]c3ccccc23)NC(=O)[C@H](CO)NC(=O)C(C)(C)NC(=O)[C@H]([C@@H](C)c2cccc3ccccc23)NC(=O)[C@@H]2C[C@H](F)CN2C(=O)CNC(=O)[C@H](Cc2ccc(C(=O)O)cc2)NC(=O)[C@H](Cc2ccncc2)NC(=O)[C@H](Cc2ccc(-c3ccc(C(=O)O)cc3)cc2)NC(=O)[C@H]2C[C@@H](Cc3ccncc3)CN2C(=O)CNC(=O)[C@H](CCN)NC(=O)[C@H](CCC(N)=O)NC1=O` [Example 357] (cyclo([Bip(4'-COOH)][4Pal][Phe(4-COOH)]G[Pro(cis-4-F)][1Nal(3S-Me)][Aib]SW[d(αMeD)][aThr]Q[Dab]G[dPro(4R-(4-pyridylmethyl))])): the IC50 turned out to be 17 pM.

`C[C@H](O)[C@@H]1NC(=O)[C@@](C)(CC(=O)O)NC(=O)[C@H](Cc2c[nH]c3ccccc23)NC(=O)[C@H](CO)NC(=O)C(C)(C)NC(=O)[C@H]([C@@H](C)c2c[nH]c3cccc(Cl)c23)NC(=O)[C@@H]2C[C@H](F)CN2C(=O)CNC(=O)[C@H](Cc2ccc(C(=O)O)cc2)NC(=O)[C@H](Cc2ccncc2)NC(=O)[C@H](Cc2ccc(-c3ccc(C(=O)O)cc3)cc2)NC(=O)[C@H]2C[C@@H](Cc3ccncc3)CN2C(=O)CNC(=O)[C@H](CCN)NC(=O)[C@H](CCC(N)=O)NC1=O` [Example 358] (cyclo([Bip(4'-COOH)][4Pal][Phe(4-COOH)]G[Pro(cis-4-F)][Trp(4-Cl)(βS-Me)][Aib]SW[d(αMeD)][aThr]Q[Dab]G[dPro(4R-(4-pyridylmethyl))])): the IC50 was 13 pM. Turning to `C[C@H](O)[C@@H]1NC(=O)[C@@](C)(CC(=O)O)NC(=O)[C@H](Cc2c[nH]c3ccccc23)NC(=O)[C@H](CO)NC(=O)C(C)(C)NC(=O)[C@H]([C@@H](C)c2c[nH]c3cccc(F)c23)NC(=O)[C@@H]2C[C@H](F)CN2C(=O)CNC(=O)[C@H](Cc2ccc(C(=O)O)cc2)NC(=O)[C@H](Cc2ccncc2)NC(=O)[C@H](Cc2ccc(-c3ccc(C(=O)O)cc3)cc2)NC(=O)[C@H]2C[C@@H](Cc3ccncc3)CN2C(=O)CNC(=O)[C@H](CCN)NC(=O)[C@H](CCC(N)=O)NC1=O` [Example 359] (cyclo([Bip(4'-COOH)][4Pal][Phe(4-COOH)]G[Pro(cis-4-F)][Trp(βS-Me,4-F)][Aib]SW[d(αMeD)][aThr]Q[Dab]G[dPro(4R-(4-pyridylmethyl))])), the IC50 was determined as 11 pM.

As for `C[C@@H](c1cccc2ccccc12)[C@@H]1NC(=O)[C@@H]2C[C@H](F)CN2C(=O)CNC(=O)[C@H](Cc2ccc(C(=O)O)cc2Cl)NC(=O)[C@H](Cc2ccncc2)NC(=O)[C@H](Cc2ccc(-c3ncc(C(=O)O)cn3)cc2)NC(=O)[C@H]2C[C@@H](Cc3ccncc3)CN2C(=O)CNC(=O)[C@H](CCN)NC(=O)[C@H](CCC(N)=O)NC(=O)[C@H](CC2CCOCC2)NC(=O)[C@@](C)(CC(=O)O)NC(=O)[C@H](Cc2c[nH]c3ccccc23)NC(=O)[C@H](CO)NC(=O)C(C)(C)NC1=O` [Example 360] (cyclo([Phe(4-(5-CO2H-2-pyrimidyl))][4Pal][Phe(2-Cl,4-COOH)]G[Pro(cis-4-F)][1Nal(3S-Me)][Aib]SW[d(αMeD)][Ala(4-THP)]Q[Dab]G[dPro(4R-(4-pyridylmethyl))])), the IC50 came to 19 pM. Regarding `C[C@@H](c1c[nH]c2cccc(F)c12)[C@@H]1NC(=O)[C@@H]2C[C@H](F)CN2C(=O)CNC(=O)[C@H](Cc2ccc(C(=O)O)c(Cl)c2)NC(=O)[C@H](Cc2ccncc2)NC(=O)[C@H](Cc2ccc(-c3ncc(C(=O)O)cn3)cc2)NC(=O)[C@H]2C[C@@H](Cc3ccncc3)CN2C(=O)CNC(=O)[C@H](CCN)NC(=O)[C@H](CCC(N)=O)NC(=O)[C@H](CC2CCOCC2)NC(=O)[C@@](C)(CC(=O)O)NC(=O)[C@H](Cc2c[nH]c3ccccc23)NC(=O)[C@H](CO)NC(=O)C(C)(C)NC1=O` [Example 361] (cyclo([Phe(4-(5-CO2H-2-pyrimidyl))][4Pal][X13]G[Pro(cis-4-F)][Trp(βS-Me,4-F)][Aib]SW[d(αMeD)][Ala(4-THP)]Q[Dab]G[dPro(4R-(4-pyridylmethyl))])), the IC50 amounted to 22 pM.

In the case of `CC(=O)NCCOc1ccc(C[C@@H]2NC(=O)[C@H]3C[C@@H](Cc4ccncc4)CN3C(=O)CNC(=O)[C@H](CCN)NC(=O)[C@H](CCC(N)=O)NC(=O)[C@H](CC3CCOCC3)NC(=O)[C@@](C)(CC(=O)O)NC(=O)[C@H](Cc3c[nH]c4ccccc34)NC(=O)[C@H](CO)NC(=O)C(C)(C)NC(=O)[C@H]([C@@H](C)c3c[nH]c4cccc(Cl)c34)NC(=O)[C@@H]3C[C@H](F)CN3C(=O)CNC(=O)[C@H](Cc3ccc(C(=O)O)cc3)NC(=O)[C@H](Cc3ccncc3)NC2=O)cc1` [Example 362] (cyclo([AEF](Ac)[4Pal][Phe(4-COOH)]G[Pro(cis-4-F)][Trp(4-Cl)(βS-Me)][Aib]SW[d(αMeD)][Ala(4-THP)]Q[Dab]G[dPro(4R-(4-pyridylmethyl))])), the IC50 came out at 23 pM.

Turning to `CC(=O)NCCOc1ccc(C[C@@H]2NC(=O)[C@H]3C[C@@H](Cc4ccncc4)CN3C(=O)CNC(=O)[C@H](CCN)NC(=O)[C@H](CCC(N)=O)NC(=O)[C@H](CC3CCOCC3)NC(=O)[C@@](C)(CC(=O)O)NC(=O)[C@H](Cc3c[nH]c4ccccc34)NC(=O)[C@H](CO)NC(=O)C(C)(C)NC(=O)[C@H]([C@@H](C)c3cccc4ccccc34)NC(=O)[C@@H]3C[C@H](F)CN3C(=O)CNC(=O)[C@H](Cc3ccc(C(=O)O)cc3Cl)NC(=O)[C@H](Cc3ccncc3)NC2=O)cc1` [Example 363] (cyclo([AEF](Ac)[4Pal][Phe(2-Cl,4-COOH)]G[Pro(cis-4-F)][1Nal(3S-Me)][Aib]SW[d(αMeD)][Ala(4-THP)]Q[Dab]G[dPro(4R-(4-pyridylmethyl))])), the IC50 was found to be 21 pM. As to `C[C@@H](c1c[nH]c2cccc(F)c12)[C@@H]1NC(=O)[C@@H]2C[C@H](F)CN2C(=O)CNC(=O)[C@H](Cc2ccc(C(=O)O)cc2)NC(=O)[C@H](Cc2ccncc2)NC(=O)[C@H](Cc2ccc(-c3ccc(C(=O)O)cc3)cc2)NC(=O)[C@H]2C[C@@H](Cc3ccncc3)CN2C(=O)CNC(=O)[C@H](CCN)NC(=O)[C@H](CCC(N)=O)NC(=O)[C@H](CC2CCOCC2)NC(=O)[C@@](C)(CO)NC(=O)[C@H](Cc2c[nH]c3ccccc23)NC(=O)[C@H](CO)NC(=O)C(C)(C)NC1=O` [Example 364] (cyclo([Bip(4'-COOH)][4Pal][Phe(4-COOH)]G[Pro(cis-4-F)][Trp(βS-Me,4-F)][Aib]SW[d(αMeS)][Ala(4-THP)]Q[Dab]G[dPro(4R-(4-pyridylmethyl))])), the IC50 turned out to be 15 pM.
